Measured values published in PMC7893821, “A conserved PI(4,5)P2–binding domain is critical for immune regulatory function of DOCK8” (Life Science Alliance, 2021).
Substitutions are numbered along the chain they refer to.

Tests used:
Test in all cases: isothermal titration calorimetry
Type in all cases: binding
DOCK8 DHR-1 domain [1] = biological target: T1, DOCK8 DHR-1 domain (Mus musculus, UniProt Q8C147)
T1 construct: DHR-1 domain, residues 558-740, pGEX6P-1, E. coli ArcticExpress DE3; GST tag cut with PreScission for ITC, GST fusion kept in vesicle assays
T1 sequence (Q8C147 558-740): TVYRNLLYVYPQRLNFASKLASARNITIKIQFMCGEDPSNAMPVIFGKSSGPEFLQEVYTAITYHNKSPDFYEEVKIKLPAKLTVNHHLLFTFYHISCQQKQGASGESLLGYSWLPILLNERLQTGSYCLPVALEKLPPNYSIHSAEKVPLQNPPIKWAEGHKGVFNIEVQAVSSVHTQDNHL

DOCK8 DHR-1 domain [2] = biological target: T2, DOCK8 DHR-1 domain (Mus musculus, UniProt Q8C147, R581A)
T2 construct: DHR-1 domain, residues 558-740, pGEX6P-1, E. coli ArcticExpress DE3; GST tag cut with PreScission for ITC, GST fusion kept in vesicle assays
T2 sequence (Q8C147 558-740 R581A): T1 sequence (Q8C147 558-740) with R24A

DOCK8 DHR-1 domain [3] = biological target: T3, DOCK8 DHR-1 domain (Mus musculus, UniProt Q8C147, K576A)
T3 construct: DHR-1 domain, residues 558-740, pGEX6P-1, E. coli ArcticExpress DE3; GST tag cut with PreScission for ITC, GST fusion kept in vesicle assays
T3 sequence (Q8C147 558-740 K576A): T1 sequence (Q8C147 558-740) with K19A
Source text: (§1) isothermal titration calorimetry on DOCK8 DHR-1 domain | Mutations R570A, K576A, and R581A led to two to threefold reduction in the binding affinity

DOCK8 DHR-1 domain [4] = biological target: T4, DOCK8 DHR-1 domain (Mus musculus, UniProt Q8C147, R570A)
T4 construct: DHR-1 domain, residues 558-740, pGEX6P-1, E. coli ArcticExpress DE3; GST tag cut with PreScission for ITC, GST fusion kept in vesicle assays
T4 sequence (Q8C147 558-740 R570A): T1 sequence (Q8C147 558-740) with R13A
Source text: as §1

DOCK8 DHR-1 domain [5] = biological target: T5, DOCK8 DHR-1 domain (Mus musculus, UniProt Q8C147, K576A/R581A); details: 20 mM Tris-HCl pH 8.0, 16 mM NaCl, 25 °C; GST tag removed
T5 construct: DHR-1 domain, residues 558-740, pGEX6P-1, E. coli ArcticExpress DE3; GST tag cut with PreScission for ITC, GST fusion kept in vesicle assays
T5 sequence (Q8C147 558-740 K576A/R581A): T1 sequence (Q8C147 558-740) with K19A, R24A

Row | Kd (DOCK8 DHR-1 domain [1]) [µM] | Kd (DOCK8 DHR-1 domain [2]) [µM] | Kd (DOCK8 DHR-1 domain [3]) [µM] | Kd (DOCK8 DHR-1 domain [4]) [µM] | Structure (SMILES) | no binding detected (DOCK8 DHR-1 domain [5])
1 | 26.9 ± 3 |  |  |  | CCCCCCCC(=O)OC[C@H](COP(=O)(O)O[C@H]1[C@H](O)[C@@H](OP(=O)(O)O)[C@H](OP(=O)(O)O)[C@@H](OP(=O)(O)O)[C@H]1O)OC(=O)CCCCCCC [diC8-PI(3,4,5)P3] | 
2 | 19.5 ± 3.7 | 64.2 ± 7.7 | 37.1 ± 8 | 42.9 ± 3.1 | CCCCCCCC(=O)OC[C@H](COP(=O)(O)O[C@@H]1[C@H](O)[C@H](O)[C@@H](OP(=O)(O)O)[C@H](OP(=O)(O)O)[C@H]1O)OC(=O)CCCCCCC [diC8-PI(4,5)P2] | Consistently, no binding was observed for KARA mutant.
